Experimental findings from patent US20210130473A1, “TGFßR1 INHIBITOR-ASGR ANTIBODY CONJUGATES AND USES THEREOF” (Silverback Therapeutics, Inc., priority 2019, published 2021) are described below.

One assay has as its target T1, ALK5 (Homo sapiens, UniProt P36897).
T1 construct: purchased Reaction Biology Corp (Malvern, Pa.)
T1 sequence (P36897 34-503): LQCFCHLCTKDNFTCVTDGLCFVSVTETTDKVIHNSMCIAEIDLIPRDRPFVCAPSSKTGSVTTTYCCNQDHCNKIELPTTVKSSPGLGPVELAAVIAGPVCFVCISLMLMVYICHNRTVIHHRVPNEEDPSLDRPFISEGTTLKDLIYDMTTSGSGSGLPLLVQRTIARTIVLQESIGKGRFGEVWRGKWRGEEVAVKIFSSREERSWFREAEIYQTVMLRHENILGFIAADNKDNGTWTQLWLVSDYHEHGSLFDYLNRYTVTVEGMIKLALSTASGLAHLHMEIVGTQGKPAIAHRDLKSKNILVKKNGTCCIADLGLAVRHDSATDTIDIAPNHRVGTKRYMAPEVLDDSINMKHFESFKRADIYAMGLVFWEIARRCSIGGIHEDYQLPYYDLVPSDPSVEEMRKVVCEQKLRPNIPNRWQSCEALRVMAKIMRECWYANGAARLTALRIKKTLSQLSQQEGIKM
In words: ALK5 enzyme inhibition assay (casein substrate, 10 uM ATP, 33P-ATP, filter-binding; Reaction Biology Corp). The assay is classed as biochemical. The method, then:
ALK5 enzyme inhibition assays were performed by Reaction Biology Corp (Malvern, Pa.). 1 mg/mL of peptide substrate (casein) and 10 uM ATP were prepared in a mixture of fresh reaction buffer. The kinase was delivered into the substrate solution which was gently mixed. Compounds in 100% DMSO were added to the kinase reaction mixture by Acoustic technology (Echo550; nanoliter range) and the mixture was incubated for 20 min at room temperature. ^33P-ATP (Specific activity 10 uCi/uL) was added into the reaction mixture to initiate the reaction and the reaction mixture was incubated for 2 hours at room temperature. Radioactivity was detected by filter-binding method and kinase activity data were expressed as the percent remaining kinase activity in test samples compared to vehicle (dimethyl sulfoxide) reactions. IC50 values and curve fits were obtained using Prism (GraphPad Software).

The test system of assay [1] is TGFβ/SMAD Signaling Pathway SBE reporter cell line. In words: TGFb reporter assay in HEK293 SBE-LUC reporter cells (luciferase). Type of assay: cell-based. The conditions noted are these: Homo sapiens, key of the table says IC50, read-out: EC50 (the source's name). On the procedure:
TGFβ/SMAD Signaling Pathway SBE reporter cell line was obtained from BPS Bioscience. Cells are passed, expanded, and stored in liquid nitrogen as per the supplier's instructions with the exception that growth media is changed to DMEM-C with Geneticin (DMEM supplemented with 10% fetal bovine serum, 1×NEAA, 1 mM Pyruvate, 2 mM glutamine, 50 μg/mL penicillin, 50 U/mL streptomycin and 400 μg/mL of Geneticin). The assay media is MEM supplemented with 0.5% fetal bovine serum, 1×NEAA, 1 mM Pyruvate, 50 μg/mL penicillin and 50 U/mL streptomycin.
Compounds are assayed to measure their activity as ALK5 inhibitors.
The HEK293 SBE-LUC reporter cells from Example 15 were grown in DMEM-C with Geneticin (DMEM supplemented with […], 1×NEAA, 1 mM Pyruvate, 2 mM glutamine, 50 μg/mL penicillin, 50 U/mL streptomycin and 400 ug/mL of Geneticin). The assay media was MEM supplemented with 0.5% fetal bovine serum, 1×NEAA, 1 mM Pyruvate, 50 μg/mL penicillin and 50 U/mL streptomycin.
The HEK293 SBE-LUC reporter cells were harvested from the tissue culture flasks by incubation in small quantity of Versene at room temperature for three to five minutes after the media in the flask is removed and cells rinsed with PBS. Cells were counted and diluted in the assay media at ˜0.8×10^6 cells/mL then 50 uL/well were added to 96-well assay plate. Test samples (at desired concentrations diluted in assay media) were added to assay plate containing the 50 uL/well of cells (or media only), 50 uL per well, and incubated for 5-6 hours at 37° C. in a 5% CO2 humidified incubator. After that time, 15 uL of TGFb diluted to 12.5 ng/mL in the assay media was added to the plate. Controls included TGFb titration (from 25 to 0 ng/mL) without inhibitors, and media only (without cells, inhibitor or TGFb). Plates were incubated at 37° C. in a 5% CO2 humidified incubator for 18h. Luciferase substrate solution was subsequently added at 75 uL per well, incubated in dark with shaking at room temperature for 10 min, and luminescence was measured using a luminometer.

In the case of `Cc1cccc(-c2nc(CNCc3cccc(-c4ccccc4)c3)[nH]c2-c2ccc3ncnn3c2)n1` [Compound 51], the IC50 (at ALK5 (Table 11); in assay [1]) was 100 to 1000 nM throughout.
Consider `Cc1cccc(-c2nc(CNCc3ccccc3-c3ccccc3CNC(=O)OC(C)(C)C)[nH]c2-c2ccc3ncnn3c2)n1` [Compound 29], for which the IC50 (on ALK5 (Table 11); in assay [1]) was 100 to 1000 nM in each case.
Turning to `COc1ccccc1CCNCc1nc(-c2cccc(C)n2)c(-c2ccc3nccnc3c2)[nH]1` [Compound 87], the IC50 was in the range of 0.1 to 50 nM at ALK5 (Table 11) and 0.1 to 10 nM in assay [1].
In the same order, the values of `Cc1cccc(-c2nc(CNCc3ccccc3Cl)[nH]c2-c2ccn3ncnc3c2)n1` [Compound 10] are 0.1 to 50 nM and 0.1 to 10 nM.
The like results for `Cc1cccc(-c2nc(CNCc3ccc(Cl)cc3)[nH]c2-c2ccc3ncnn3c2)n1` [Compound 3] were, in that order, 1000 to 10000 nM and 10 to 100 nM.
On to `Cc1cccc(-c2nc(CNc3cccc4c3CC(N)C4)[nH]c2-c2ccc3ncnn3c2)n1` (centres unmarked) [Compound 1.22], for which the IC50 on ALK5 (Table 12) was in the range of 1000 to 10000 nM; in assay [1], 100 to 1000 nM.
In the case of `Cc1cccc(-c2nc(CNCc3ccccc3C(C)C)[nH]c2-c2ccc3ncnn3c2)n1` [Compound 23], the values for the IC50 (on ALK5 (Table 11); in assay [1]) were 50 to 100 nM and 0.1 to 10 nM, respectively.
Consider `Cc1cccc(-c2nc(C3CCCNC3)[nH]c2-c2ccc3ncnn3c2)n1` (centres unmarked) [Compound 1.48], for which the IC50 at ALK5 (Table 12) is 1000 to 10000 nM; in assay [1], 100 to 1000 nM.
With `Cc1cccc(-c2nc(CNCc3ccccc3-c3ccc(CNC(=O)OC(C)(C)C)cc3)[nH]c2-c2ccc3ncnn3c2)n1` [Compound 31], the IC50 (at ALK5 (Table 11); in assay [1]) was 100 to 1000 nM each time.
For the compound `Cc1cccc(-c2nc(CNCc3cccc(C)c3C)[nH]c2-c2ccc3ncnn3c2)n1` [Compound 45], the IC50 was 50 to 100 nM on ALK5 (Table 11) and 0.1 to 10 nM in assay [1].
Take `Cc1cccc(-c2nc(CNCCOc3ccccc3)[nH]c2-c2ccc3ncnn3c2)n1` [Compound 65]: the IC50 lay in the range of 100 to 1000 nM at ALK5 (Table 11) and 0.1 to 10 nM in assay [1].
`Cc1cccc(-c2nc(CNCc3ccccc3F)[nH]c2-c2ccc3ncnn3c2)n1` [Compound 18]: the values for the IC50 (at ALK5 (Table 11); in assay [1]) were 0.1 to 50 nM and 0.1 to 10 nM, respectively.
Consider `Cc1cccc(-c2nc(CNCc3ccccc3-c3ccccn3)[nH]c2-c2ccc3ncnn3c2)n1` [Compound 40], for which the IC50 on ALK5 (Table 11) lay in the range of 100 to 1000 nM; in assay [1], 10 to 100 nM.
For the compound `Cc1cccc(-c2nc(CNCc3ccccc3-c3ccccc3)[nH]c2-c2ccc3ncccc3n2)n1` [Compound 68], the IC50 on ALK5 (Table 11) fell in the range of 0.1 to 50 nM; in assay [1], 10 to 100 nM.
On to `Cc1cccc(-c2nc(CNCc3ccccc3-c3ccc(CN)cc3)[nH]c2-c2ccc3ncnn3c2)n1` [Compound 34], for which the IC50 (on ALK5 (Table 11); in assay [1]) was 100 to 1000 nM each time.
As to `Cc1cccc(-c2nc(CNCCc3cccc(F)c3)[nH]c2-c2ccc3ncnn3c2)n1` [Compound 61], the figures for the IC50 (at ALK5 (Table 11); in assay [1]) were 0.1 to 50 nM and 0.1 to 10 nM, respectively.
Consider `Cc1cccc(-c2nc(CNc3ccc4c(c3)CC(N)C4)[nH]c2-c2ccc3ncnn3c2)n1` (centres unmarked) [Compound 1.24], for which the IC50 (on ALK5 (Table 12); in assay [1]) was 100 to 1000 nM in each case.
With `Cc1cccc(-c2nc(CNCCc3c(F)cccc3F)[nH]c2-c2ccc3c(c2)OCO3)n1` [Compound 81], the IC50 at ALK5 (Table 11) fell in the range of 0.1 to 50 nM; in assay [1] it was 10 to 100 nM.
As for `Cc1cccc(-c2nc(CN[C@@H]3CCc4ccccc43)[nH]c2-c2ccn3ncnc3c2)n1` [Compound 1.30], the results for the IC50 (on ALK5 (Table 12); in assay [1]) were 100 to 1000 nM and 10 to 100 nM, respectively.
Turning to `Cc1cccc(-c2nc(CNCc3ccccc3-c3ccccc3F)[nH]c2-c2ccc3ncnn3c2)n1` [Compound 38], the IC50 was 0.1 to 50 nM at ALK5 (Table 11) and 0.1 to 10 nM in assay [1].
The like results for `Cc1cccc(-c2nc(CNCc3ccccc3C(O)C(F)(F)F)[nH]c2-c2ccc3ncnn3c2)n1` (centres unmarked) [Compound 28] were, in that order, 0.1 to 50 nM and 0.1 to 10 nM.
In the case of `Cc1cccc(-c2nc(CN[C@H]3CCCC[C@H]3F)[nH]c2-c2ccn3ncnc3c2)n1` [Compound 1.33], the IC50 (on ALK5 (Table 12); in assay [1]) was 100 to 1000 nM each time.
Consider `Cc1cccc(-c2nc(CNCc3ccccc3-c3ccccc3)[nH]c2-c2ccc3ncccc3c2)n1` [Compound 91], for which the results for the IC50 (at ALK5 (Table 11); in assay [1]) were 100 to 1000 nM and 10 to 100 nM, respectively.
Consider `Cc1cccc(-c2nc(CNc3ccc4c(c3)CCC4N)[nH]c2-c2ccc3ncnn3c2)n1` (centres unmarked) [Compound 1.5], for which the IC50 (on ALK5 (Table 12); in assay [1]) was 100 to 1000 nM throughout.
Turning to `COC(=O)[C@@H](NCc1nc(-c2cccc(C)n2)c(-c2ccc3ncnn3c2)[nH]1)c1ccccc1` [Compound 16], the IC50 at ALK5 (Table 11) was in the range of 0.1 to 50 nM; in assay [1], 100 to 1000 nM.
The like results for `Cc1cccc(-c2nc(CNCc3ccccc3C3CCCCC3)[nH]c2-c2ccc3ncnn3c2)n1` [Compound 43] were, in that order, 100 to 1000 nM and 100 to 1000 nM.
The like results for `COc1ccc(CNCc2nc(-c3cccc(C)n3)c(-c3ccc4ncnn4c3)[nH]2)cc1` [Compound 8] were, in that order, 1000 to 10000 nM and 100 to 1000 nM.
In the case of `Cc1cccc(-c2nc(C3CN(C(=O)OC(C)(C)C)C3)[nH]c2-c2ccc3ncnn3c2)n1` [Compound 1.52], the IC50 lay in the range of 1000 to 10000 nM at ALK5 (Table 12) and 100 to 1000 nM in assay [1].
With `COc1ccccc1CCNCc1nc(-c2cccc(C)n2)c(-c2ccc3ncccc3n2)[nH]1` [Compound 84], the values for the IC50 (at ALK5 (Table 11); in assay [1]) were 100 to 1000 nM and 0.1 to 10 nM, respectively.
In the same order, the values of `Cc1cccc(-c2nc(CNCc3ccccc3CC(F)(F)F)[nH]c2-c2ccc3ncnn3c2)n1` [Compound 27] are 50 to 100 nM and 0.1 to 10 nM.
Consider `Cc1cccc(-c2nc(CNC3CCCOC3)[nH]c2-c2ccc3ncnn3c2)n1` (centres unmarked) [Compound 1.15], for which the values for the IC50 (on ALK5 (Table 12); in assay [1]) were 100 to 1000 nM and 10 to 100 nM, respectively.
Consider `Cc1cccc(-c2nc(CNCc3cccc(Cl)c3C)[nH]c2-c2ccc3ncnn3c2)n1` [Compound 47], for which the IC50 lay in the range of 0.1 to 50 nM on ALK5 (Table 11) and 0.1 to 10 nM in assay [1].
Consider `Cc1cccc(-c2nc(CNc3ccc4c(c3)C(N)CC4)[nH]c2-c2ccc3ncnn3c2)n1` (centres unmarked) [Compound 1.21], for which the IC50 (at ALK5 (Table 12); in assay [1]) was 100 to 1000 nM each time.
For the compound `Cc1cccc(-c2nc(C3CCN(C(=O)OC(C)(C)C)C3)[nH]c2-c2ccc3ncnn3c2)n1` (centres unmarked) [Compound 1.51], the IC50 was in the range of 1000 to 10000 nM at ALK5 (Table 12) and 100 to 1000 nM in assay [1].
The like results for `Cc1cccc(-c2nc(CNc3cccc4c3C(N)CC4)[nH]c2-c2ccc3ncnn3c2)n1` (centres unmarked) [Compound 1.20] were, in that order, 100 to 1000 nM and 100 to 1000 nM.
`Cc1cccc(-c2nc(CNCc3ccccc3-c3cccc(CN)c3)[nH]c2-c2ccc3ncnn3c2)n1` [Compound 33]: the IC50 (on ALK5 (Table 11); in assay [1]) was 100 to 1000 nM each time.
For `Cc1cccc(-c2nc(CNCc3ccccc3OC(F)(F)F)[nH]c2-c2ccc3ncnn3c2)n1` [Compound 26], the IC50 at ALK5 (Table 11) is 0.1 to 50 nM; in assay [1], 0.1 to 10 nM.
In the same order, the values of `Cc1cccc(-c2nc(CNCc3ccccc3-c3cc(F)cc(F)c3)[nH]c2-c2ccc3ncnn3c2)n1` [Compound 39] are 0.1 to 50 nM and 10 to 100 nM.
In the same order, the values of `Cc1cccc(-c2nc(CNCc3cccc(Cl)c3)[nH]c2-c2ccc3ncnn3c2)n1` [Compound 2] are 100 to 1000 nM and 10 to 100 nM.
The like results for `Cc1cccc(-c2nc(CNCc3ccccc3-c3ccccc3)[nH]c2-c2ccc3ncnn3c2)n1` [Compound 24] were, in that order, 0.1 to 50 nM and 0.1 to 10 nM.
